Assay results: PMC5031696, “Synthesis, Biodistribution and In vitro Evaluation of Brain Permeable High Affinity Type 2 Cannabinoid Receptor Agonists [^11C]MA2 and [^18F]MA3” (Frontiers in Neuroscience, 2016)
Values joined by “and” are separate entries in the source; they are usually repeats but may differ in a detail not shown here. Equal values may be shown once.

Legend:
[1] = design: method as in Horti et al., 2010; details: rat brain, 2 min post injection; ref Horti et al., 2010; cited from earlier work
[2] = biodistribution studies in male NMRI mice; type: in vivo, mouse; details: NMRI mice; for % ID bladder + urine / % ID blood / SUV blood / % ID brain / SUV brain / % ID heart / SUV heart / % ID intestines / % ID kidneys / SUV kidneys / % ID liver / SUV liver / % ID lungs / SUV lungs / % ID pancreas / SUV pancreas / % ID spleen / SUV spleen / % ID stomach: i.v.
Procedure: The tissue distribution and kinetics of [^11C]MA2 and [^18F]MA3 were studied in male NMRI mice at 2, 10, 30, and 60 min post injection of the tracer. The results of the biodistribution studies are presented in Table 1 ([^11C]MA2) and Table 2 ([^18F]MA3) as percentage of injected dose (% ID) and standard uptake value (SUV).
The biodistribution of [^11C]MA2 and [^18F]MA3 was studied in normal male Naval Medical Research Institute (NMRI) mice. A solution of HPLC-purified [^11C]MA2 or [^18F]MA3 was diluted with saline to obtain an ethanol concentration < 10%. Mice were anesthetized with isoflurane (2% in oxygen) and injected intravenously (i.v.) with [^11C]MA2 (~ 9.25 MBq) or [^18F]MA3 (~ 0.92 MBq) via a lateral tail vein. The mice were sacrificed by decapitation at 2, and 60 min post injection (for [^11C]MA2, n = 4) and at 2, 10, 30, or 60 min post injection (for [^18F]MA3, n = 3 or 4 per time point) and dissected. Blood, organs, and other body parts were collected in tared tubes and the radioactivity in each tube was measured using an automated gamma counter. The tubes containing selected organs and blood were weighed. For calculation of total radioactivity in blood, blood mass was assumed to be 7% of the body mass (Fritzberg et al., [1982]). Quantitative data are expressed as mean ± standard deviation (SD). Means were compared using an unpaired two-tailed student t-test. Values were considered statistically significant for P ≤ 0.05.

[3] = plasma radiometabolite analysis; type: in vivo; details: mouse plasma, average of 2 assays
Procedure: The fraction of radiometabolites in mouse plasma at 2 and 30 min after injection of the tracer was determined by RP-HPLC analysis to investigate the in vivo stability of [^11C]MA2. […] At 2 min post injection of [^11C]MA2, 88% (n = 2) of the recovered radioactivity was assigned to the intact parent tracer. The percentage of intact [^11C]MA2 decreased to 34% at 30 min post injection of the tracer. All detected radiometabolites were more polar than the intact tracer.
After i.v. administration of [^11C]MA2 (~ 9.25 MBq) via a lateral tail vein to anesthetized NMRI mice (isoflurane 2% in oxygen), the mice were decapitated at 2 or 30 min post injection (n = 2 per time point). […] The isolated plasma was spiked with authentic non-radioactive MA2 (15 μL of 1 mg/mL solution in CH3CN) and analyzed by RP-HPLC on a Chromolith RP C18 column (3 mm x 100 mm; Merck) eluted with gradient mixtures of CH3CN (A) and 0.05 M NaOAc pH 5.5 (B) (0–5 min: Isocratic 100% B, flow rate of 0.5 mL/min; 5–10 min: Linear gradient 100 B to 10% B, flow rate of 1 mL/min; 10–13 min: Isocratic 10% B, flow rate of 1 mL/min; 13–13.1 min: Linear gradient 10 B to 100% B, flow rate of 0.5 mL/min; 13.1–15 min: Isocratic 100% B, flow rate of 0.5 mL/min). […] The radioactivity in all fractions was measured using an automated gamma counter. […]

## Cc1sc(=NC(=O)C2C(C)(C)C2(C)C)n(CCO[11CH3])c1C [[^11C]A-836339]
[1]
  SUV in brain: ~ 0.5

## [11CH3]Oc1ccc2ncc(NCCCc3nc(-c4ccc(F)cc4Cl)no3)cc2c1 [[^11C]MA2]
[2]
  accumulation in the spleen: no accumulation
[2]; 2 min post injection
  % ID bladder + urine: 0.2 ± 0.1 % ID
  % ID blood: 5.8 ± 0.4 % ID
  SUV blood: 0.8 ± 0.1
  % ID brain: 1.6 % ID and 1.6 ± 0.5 % ID
  SUV brain: 1.8 ± 0.2
  % ID heart: 1.4 ± 0.4 % ID
  SUV heart: 3.3 ± 0.6
  % ID intestines: 9.7 ± 0.4 % ID
  % ID kidneys: 8.3 ± 1.6 % ID
  SUV kidneys: 5.1 ± 0.7
  % ID liver: 28.3 ± 2.9 % ID
  SUV liver: 6.0 ± 0.1
  % ID lungs: 1.4 ± 0.3 % ID
  SUV lungs: 2.3 ± 0.4
  % ID pancreas: 1.6 ± 0.8 % ID
  SUV pancreas: 2.2 ± 1.0
  % ID spleen: 0.5 ± 0.2 % ID
  SUV spleen: 2.0 ± 0.2
  % ID stomach: 1.3 ± 0.3 % ID
[2]; 60 min post injection
  % ID bladder + urine: 4.5 % ID and 4.5 ± 1.0 % ID
  % ID blood: 0.7 ± 0.1 % ID
  SUV blood: 0.1 ± 0.0
  % ID brain: 0.1 ± 0.0 % ID
  SUV brain: 0.1 ± 0.0
  % ID heart: 0.1 ± 0.0 % ID
  SUV heart: 0.1 ± 0.0
  % ID intestines: 63.8 % ID and 63.8 ± 2.9 % ID
  % ID kidneys: 1.0 ± 0.3 % ID
  SUV kidneys: 0.6 ± 0.1
  % ID liver: 9.1 ± 3.0 % ID
  SUV liver: 2.0 and 2.0 ± 0.5
  % ID lungs: 0.1 ± 0.0 % ID
  SUV lungs: 0.2 ± 0.0
  % ID pancreas: 0.2 ± 0.1 % ID
  SUV pancreas: 0.3 ± 0.0
  % ID spleen: 0.03 ± 0.01 % ID
  SUV spleen: 0.2 ± 0.0
  % ID stomach: 4.2 ± 3.9 % ID
[2]; clearance from blood
  blood % ID 2 min/60 min ratio: 8.6
[2]; wash-out from brain
  brain % ID 2 min/60 min ratio: 18.4
[3]; 2 min post injection
  % of intact tracer in blood plasma: 88%
[3]; 30 min post injection
  % of intact tracer in blood plasma: 34%
